Data: ChEMBL document CHEMBL3244006, “Synthesis and antinociceptive activity of 7-methoxycodeine” (J Med Chem, 1978)
Activity calls are given as the source filed them. The rule behind the calls is not given here.

Legend:
Mus musculus [1] = assay: Antinociceptive activity in sc dosed mouse by Eddy hot-plate assay; assay type: functional
Mus musculus [2] = assay: Antinociceptive activity in po dosed mouse by Eddy hot-plate assay; assay type: functional
[3] = Stability of the compound in acidic media; assay type: physicochemical
Mus musculus [4] = assay: Antinociceptive activity in mouse at 100 mg/kg, sc by Eddy hot-plate assay; assay type: functional, organism-based; parameters: dose 100 mg/kg
Mus musculus [5] = assay: Antinociceptive activity in mouse at 100 mg/kg, po by Eddy hot-plate assay; assay type: functional, organism-based; parameters: dose 100 mg/kg

Q: With COC1=C[C@H]2[C@H]3Cc4c(Br)cc(OC)c5c4[C@@]2(CCN3C)[C@@H](O5)C1=O as the compound, how does the ED50 (Mus musculus [1]) read?
A: Its ED50 is 40.4 µmol/kg.

Q: For COC1=C[C@H]2[C@H]3Cc4ccc(OC)c5c4[C@@]2(CCN3C)[C@@H](O5)[C@H]1O, which ED50 (Mus musculus [1]) is on record?
A: Its ED50 is 43.1 µmol/kg.

Q: What about the ED50 (Mus musculus [2]) of the same compound?
A: Its ED50 is 30.4 µmol/kg.

Q: What about the Stability [3] of the same compound?
A: The Stability was “Unstable”.

Q: Which ED50 (Mus musculus [1]) does the source give for CN1CC[C@]23c4c5ccc(O)c4O[C@H]2[C@@H](O)C=C[C@H]3[C@H]1C5 here?
A: The ED50 was 3.3 µmol/kg.

Q: What about the ED50 (Mus musculus [2]) of the same compound?
A: Its ED50 is 18.8 µmol/kg.

Q: For COC1=C[C@]23CCN(C)[C@H](Cc4c(Br)cc(OC)c(O)c42)[C@@H]3CC1=O, which Activity (Mus musculus [4]) is on record?
A: Its Activity is “inactive”.

Q: For COc1ccc2c(c1O)[C@]13CCN(C)[C@H](C2)[C@@H]1CC(=O)C(=O)C3, which ED50 (Mus musculus [1]) is on record?
A: Its ED50 is 26.7 µmol/kg.

Q: What about the Activity (Mus musculus [5]) of the same compound?
A: The Activity was “inactive”.

Q: For COC1=C[C@H]2[C@H]3Cc4c(Br)cc(OC)c(O)c4[C@@]2(CCN3C)CC1=O, which Activity (Mus musculus [4]) is on record?
A: Its Activity is “inactive”.

Q: With COc1ccc2c3c1O[C@H]1[C@@H](O)C=C[C@H]4[C@@H](C2)N(C)CC[C@@]341 [CODEINE PHOSPHATE] as the compound, how does the ED50 (Mus musculus [2]) read?
A: The ED50 was 34 µmol/kg.
